In ChEMBL document CHEMBL1158864, “Pyrrolizidine Alkaloids from Senecio r oseus and Senecio h elodes” (J Nat Prod, 1997):
Active and inactive are the calls of the source. The rule behind the calls is not given here.

Tests used:
Escherichia coli = test: Antimicrobial activity against Escherichia coli ATCC 10536; assay type: functional, organism-based
Trichoderma viride = test: Antimicrobial activity against Trichoderma viride; assay type: functional, organism-based
Aspergillus niger = test: Antimicrobial activity against Aspergillus niger; assay type: functional, organism-based
[1] = (§1) Toxicity against Artemia salina; assay type: organism-based; settings: in vivo
Artemia salina = test: as §1; assay type: organism-based; settings: in vivo

C[C@@H]1[C@@H](O)[C@]2(C)CC(=O)O[C@@H]3CCN4CC=C(COC(=O)[C@@]1(C)O2)[C@H]34
Activity (Escherichia coli): inactive
Activity (Trichoderma viride): inactive
Activity (Aspergillus niger): inactive
LC50 [1]: > 300 µg/mL

C[C@@H]1C[C@]2(C)CC(=O)O[C@@H]3CCN4CC=C(COC(=O)[C@@]1(C)O2)[C@H]34 [RETROISOSENINE HYDRCHLORIDE]
LC50 [1]: > 300 µg/mL

C[C@@H]1C[C@]2(C)CC(=O)O[C@@H]3CCN4CC=C(COC(=O)[C@@]1(C)O2)[C@H]34
Activity (Escherichia coli): inactive
Activity (Trichoderma viride): inactive
Activity (Aspergillus niger): inactive

C[C@@H]1C[C@]2(C)CC(=O)O[C@@H]3CCN4CC[C@H](COC(=O)[C@@]1(C)O2)[C@H]34 [MULGEDIIFOLINE]
Activity (Escherichia coli): inactive
Activity (Trichoderma viride): inactive
Activity (Aspergillus niger): inactive
LC50 [1]: > 300 µg/mL

C[C@@H]1C[C@]2(C)CC(=O)O[C@@H]3CCN4CC=C(COC(=O)[C@@]1(C)O2)[C@H]34 [RETROISOSENINE]
LC50 (Artemia salina): > 300 µg/mL
